Some results are limits rather than exact numbers.

For the first assay, the system named is cultured human mast cells (CHMC). Briefly: CHMC low cell density IgE activation: tryptase assay. Format: cell-based. As to conditions: Homo sapiens, Mast cell, low cell density CHMC, IgE activation, tryptase readout, 3 pt; read-out: LD Tryptase, CHMC, IgE, 3 pt. In outline: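 Fluorogenic readout of tryptase released into the supernatant (30 min substrate incubation, room temperature) measures degranulation. Cells were plated at low density (1000–1500/well, varied by donor) and triggered with anti-IgE for 30 min at 37 °C.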
`COc1cccc(Nc2ncc(F)c(Nc3ccc4c(c3)NC(=O)C(C)(C)O4)n2)c1C` [Compound 1062, N4-(2,2-Dimethyl-3-oxo-4H-benz[1,4]oxazin-6-yl)-5-fluoro-N2-(3-methoxy-2-methylphenyl)-2,4-pyrimidinediamine]: the IC50 is below 10 µM.

Staying with this assay, now noted: Homo sapiens, Mast cell, low cell density CHMC, IgE activation, tryptase readout, 8 pt; read-out: LD Tryptase, CHMC, IgE, 8 pt.
Take `Cc1c(O)cccc1Nc1ncc(F)c(Nc2ccc3c(c2)NC(=O)C(C)(C)O3)n1` [Compound 1060, N4-(2,2-Dimethyl-3-oxo-4H-benz[1,4]oxazin-6-yl)-5-fluoro-N2-(3-hydroxy-2-methylphenyl)-2,4-pyrimidinediamine]: the IC50 is below 10 µM.

Still in this assay, the particulars now being: low cell density CHMC, IgE activation, tryptase readout, 3 pt; read-out: LD Tryptase, CHMC, IgE, 3 pt.
Consider `COc1cccc(Nc2ncc(F)c(Nc3ccc4c(n3)NC(=O)C(C)(C)O4)n2)c1C` [Compound 1065, N4-(2,2-Dimethyl-3-oxo-4H-5-pyrid[1,4]oxazin-6-yl)-5-fluoro-N2-(3-methoxy-2-methylphenyl)-2,4-pyrimidinediamine], for which the IC50 is below 10 µM.

`COC(=O)COc1cccc(Nc2ncc(F)c(Nc3ccc4c(c3)NC(=O)C(C)(C)O4)n2)c1C` [Compound 1066, N4-(2,2-Dimethyl-3-oxo-4H-benz[1,4]oxazin-6-yl)-5-fluoro-N2-[3-methoxycarbonylmethyleneoxy-2-methylphenyl]-2,4-pyrimidinediamine]: the IC50 is below 10 µM.

Staying with this assay, now noted: low cell density CHMC, IgE activation, tryptase readout, 8 pt; read-out: LD Tryptase, CHMC, IgE, 8 pt.
For `COc1c(C)cc(Nc2ncc(F)c(Nc3ccc4c(n3)NC(=O)CO4)n2)cc1C` [Compound 1059, N2-(3,5-Dimethyl-4-methoxyphenyl)-5-fluoro-N4-(3-oxo-2H,4H-5-pyrid[1,4]oxazin-6-yl)-2,4-pyrimidinediamine], the IC50 is below 10 µM.

Take `COc1cccc(Nc2ncc(F)c(Nc3ccc4c(n3)NC(=O)CO4)n2)c1C` [Compound 1061, 5-Fluoro-N2-(3-methoxy-2-methylphenyl)-N4-(3-oxo-2H,4H-5-pyrid[1,4]oxazin-6-yl)-2,4-pyrimidinediamine]: the IC50 was below 10 µM.

Take `Cc1c(O)cccc1Nc1ncc(F)c(Nc2ccc3c(n2)NC(=O)CO3)n1` [Compound 1063, 5-Fluoro-N2-(3-hydroxy-2-methylphenyl)-N4-(3-oxo-2H,4H-5-pyrid[1,4]oxazin-6-yl)-2,4-pyrimidinediamine]: the IC50 was below 10 µM.

With `Cc1c(O)cccc1Nc1ncc(F)c(Nc2ccc3c(n2)NC(=O)C(C)(C)O3)n1` [Compound 1064, N4-(2,2-Dimethyl-3-oxo-4H-5-pyrid[1,4]oxazin-6-yl)-5-fluoro-N2-(3-hydroxy-2-methylphenyl)-2,4-pyrimidinediamine], the IC50 was below 10 µM.

As for `CNC(=O)COc1cccc(Nc2ncc(F)c(Nc3ccc4c(c3)NC(=O)C(C)(C)O4)n2)c1C` [Compound 1067, N4-(2,2-Dimethyl-3-oxo-4H-benz[1,4]oxazin-6-yl)-5-fluoro-N2-[2-methyl-3-(N-methylamino)carbonylmethyleneoxyphenyl]-2,4-pyrimidinediamine], the IC50 was below 10 µM.

With `CNC(=O)COc1cccc(Nc2ncc(F)c(Nc3ccc4c(n3)NC(=O)CO4)n2)c1C` [Compound 1068, 5-Fluoro-N2-[2-methyl-3-(N-methylamino)carbonylmethyleneoxyphenyl]-N4-(3-oxo-2H,4H-5-pyrid[1,4]oxazin-6-yl)-2,4-pyrimidinediamine], the IC50 was below 10 µM.

Turning to `Cc1cc(Nc2ncc(F)c(Nc3ccc4c(n3)NC(=O)CO4)n2)cc(C)c1O` [Compound 1069, N2-(3,5-Dimethyl-4-hydroxyphenyl)-5-fluoro-N4-(3-oxo-2H,4H-5-pyrid[1,4]oxazin-6-yl)-2,4-pyrimidinediamine], the IC50 is below 10 µM.

Turning to `CCOC(=O)N1CCN(c2cccc(Nc3ncc(F)c(Nc4ccc5c(n4)NC(=O)CO5)n3)c2)CC1` [Compound 1070, N2-[3-(4-Ethoxycarbonylpiperazino)phenyl]-5-fluoro-N4-(3-oxo-2H,4H-5-pyrid[1,4]oxazin-6-yl)-2,4-pyrimidinediamine], the IC50 is below 10 µM.

Regarding `CC(=O)N1CCN(c2cccc(Nc3ncc(F)c(Nc4ccc5c(n4)NC(=O)CO5)n3)c2)CC1` [Compound 1071, N2-[3-(4-Acetylpiperazino)phenyl]-5-fluoro-N4-(3-oxo-2H,4H-5-pyrid[1,4]oxazin-6-yl)-2,4-pyrimidinediamine], the IC50 was below 10 µM.
